Measured values taken from ChEMBL document CHEMBL1131756, “Synthesis and biological activity of anthelmintic thiadiazoles using an AF-2 receptor binding assay” (Bioorg Med Chem Lett, 1999).

Each compound was assayed against AF2 neuropeptide receptor (assay: In vitro antihelminthic activity using AF2 Neuropeptide receptor binding assay in Caenorhabditis elegans).

Row | SMILES | IC50 [µM]
1 | N=c1sc(-c2cc([N+](=O)[O-])ccc2F)nn1-c1c(Cl)cc(C(F)(F)F)cc1Cl | 0.63
2 | N=c1sc(-c2cccnn2)nn1-c1c(Cl)cc(C(F)(F)F)cc1Cl | 35
3 | N=c1sc(-c2cc(F)ccc2F)nn1-c1c(Cl)cc(C(F)(F)F)cc1Cl | 0.37
4 | N=c1sc(-c2ccc(F)cc2)nn1-c1c(Cl)cc(Cl)cc1Cl | 0.9
5 | N=c1sc(-c2ccc(OC(F)(F)F)cc2)nn1-c1c(Cl)cc(Cl)cc1Cl | 5
6 | COc1ccc(OC)c(-c2nn(-c3c(Cl)cc(C(F)(F)F)cc3Cl)c(=N)s2)c1 | 4
7 | N=c1sc(-c2ccncn2)nn1-c1c(Cl)cc(C(F)(F)F)cc1Cl | 2.6
8 | COC(=O)c1ccnc(-c2nn(-c3c(Cl)cc(C(F)(F)F)cc3Cl)c(=N)s2)c1 | 0.13
9 | N=c1sc(-c2cc(C(F)(F)F)ccc2F)nn1-c1c(Cl)cc(C(F)(F)F)cc1Cl | 0.063
10 | CCOC(=O)Oc1ccc(-c2nn(-c3c(Cl)cc(Cl)cc3Cl)c(=N)s2)cc1 | 4
11 | N=c1sc(-c2ccc(C(F)(F)F)cc2)nn1-c1c(Cl)cc(Cl)cc1Cl | 20
12 | N=c1sc(-c2cccc(C(F)(F)F)c2F)nn1-c1c(Cl)cc(Cl)cc1Cl | 4
13 | N#Cc1ccc(-c2nn(-c3c(Cl)cc(Cl)cc3Cl)c(=N)s2)cc1 | 6
14 | N=c1sc(-c2ccccc2SC(F)(F)F)nn1-c1c(Cl)cc(C(F)(F)F)cc1Cl | 56
15 | Cc1cccnc1-c1nn(-c2c(Cl)cc(C(F)(F)F)cc2Cl)c(=N)s1 | 11
16 | N=c1sc(-c2ccnc([N+](=O)[O-])c2)nn1-c1c(Cl)cc(C(F)(F)F)cc1Cl | 0.013
17 | Cc1ccc(-c2nn(-c3c(Cl)cc(Cl)cc3Cl)c(=N)s2)cc1 | 7
18 | N=c1sc(-c2ccccc2)nn1-c1c(Cl)cc(Cl)cc1Cl | 3
19 | N=c1sc(-c2cc(CN)ccn2)nn1-c1c(Cl)cc(C(F)(F)F)cc1Cl | 47
20 | N=c1sc(-c2ccc(O)cc2)nn1-c1c(Cl)cc(Cl)cc1Cl | 4
21 | N=c1sc(-c2c(F)cccc2C(F)(F)F)nn1-c1c(Cl)cc(C(F)(F)F)cc1Cl | > 100
22 | N=c1sc(-c2ccccc2F)nn1-c1c(Cl)cc(C(F)(F)F)cc1Cl | 0.15
23 | N=c1sc(-c2cc(Br)ccc2F)nn1-c1c(Cl)cc(C(F)(F)F)cc1Cl | 0.63
24 | CC(C)(C)c1cc(-c2nn(-c3c(Cl)cc(C(F)(F)F)cc3Cl)c(=N)s2)ccn1 | 0.037

Row | SMILES | IC50 [µM]
25 | Cc1ccccc1-c1nn(-c2c(Cl)cc(Cl)cc2Cl)c(=N)s1 | 4
26 | N=c1sc(-c2ccccn2)nn1-c1c(Cl)cc(Cl)cc1C(F)(F)F | 0.14
27 | N=c1sc(-c2ccccn2)nn1-c1c(Cl)cc(Cl)cc1Cl | 0.4
28 | N=c1sc(-c2cccc(Br)n2)nn1-c1c(Cl)cc(C(F)(F)F)cc1Cl | 20
29 | N=c1sc(-c2ccc(C(F)(F)F)cc2F)nn1-c1c(Cl)cc(Cl)cc1Cl | 1
30 | N=c1sc(-c2ccc(Cl)cc2)nn1-c1c(Cl)cc(Cl)cc1Cl | 5
31 | N=c1sc(-c2cccnc2)nn1-c1c(Cl)cc(Cl)cc1Cl | 40
32 | N=c1sc(-c2cc(Cl)ccn2)nn1-c1c(Cl)cc(C(F)(F)F)cc1Cl | 0.16
33 | N=c1sc(-c2ccc(Br)cc2)nn1-c1c(Cl)cc(Cl)cc1Cl | 4
34 | N=c1sc(-c2ncc(C(F)(F)F)cc2Cl)nn1-c1c(Cl)cc(C(F)(F)F)cc1Cl | 2.4
35 | N=c1sc(-c2cc(C(F)(F)F)ccc2F)nn1-c1c(Cl)cc(Cl)cc1Cl | 0.1
36 | N=c1sc(-c2ccc([N+](=O)[O-])cc2)nn1-c1c(Cl)cc(Cl)cc1Cl | 5
37 | N=c1sc(-c2cnccn2)nn1-c1c(Cl)cc(C(F)(F)F)cc1Cl | 0.2
38 | N=c1sc(-c2cccc(F)c2)nn1-c1c(Cl)cc(Cl)cc1Cl | 8
39 | N=c1sc(-c2ccccc2F)nn1-c1c(Cl)cc(Cl)cc1Cl | 0.5
40 | COC(=O)c1ccccc1-c1nn(-c2c(Cl)cc(C(F)(F)F)cc2Cl)c(=N)s1 | > 100
41 | N=c1sc(-c2cncc(C(F)(F)F)c2)nn1-c1c(Cl)cc(C(F)(F)F)cc1Cl | 0.021
42 | COC(=O)c1ccc(-c2nn(-c3c(Cl)cc(Cl)cc3Cl)c(=N)s2)cc1 | 11
43 | N=c1sc(-c2ccccc2OC(F)(F)F)nn1-c1c(Cl)cc(C(F)(F)F)cc1Cl | 85
44 | COc1ccc(-c2nn(-c3c(Cl)cc(Cl)cc3Cl)c(=N)s2)cc1 | 80
45 | N=c1sc(-c2ccccn2)nn1-c1c(Cl)cc(C(F)(F)F)cc1Cl | 0.09
46 | N#Cc1ccnc(-c2nn(-c3c(Cl)cc(C(F)(F)F)cc3Cl)c(=N)s2)c1 | 0.01
47 | CC(=O)Nc1ccc(-c2nn(-c3c(Cl)cc(Cl)cc3Cl)c(=N)s2)cc1 | 70
